Results taken from patent US20240376148A1, “MEDICAMENT FOR INHIBITING DIETARY OBESITY AND POLYPEPTIDE USED THEREFOR” (INSTITUTE OF ZOOLOGY, CHINESE ACADEMY OF SCIENCES, priority 2022, published 2024).

What was measured:
[1] = cited from earlier work
[2] = Short-term feed intake experiment of SPF mice; format: in vivo, C57/B16J mice; details: after 8 weeks of treatment, starved one day then fed
Procedure: A total of 2 treatments were set up, each with one cage of C57/B16J mice, and the high-fat diet used was rodent feed (containing 60 kcal % fat, D12492), and each treatment was subjected to different feeding treatments, specifically as follows:
HFD group (i.e. high-fat diet group): fed with high-fat diet.
(§1) D1 group (i.e. high-fat diet+D1 intragastric administration group): fed with high-fat diet, free diet and drinking water. Intragastrically administrated with synthetic D1, 0.75 mg-3 mg/Kg body weight, 0.2 ml, once/day for 8 weeks.
(§2) D2 group (i.e. high-fat diet+D2 intragastric administration group): fed with high-fat diet, free diet and drinking water. Intragastrically administrated with synthetic D2, 0.75 mg-3 mg/Kg body weight, 0.2 ml, once/day for 8 weeks.
D3 group (i.e. high-fat diet+D3 intragastric administration group): fed with high-fat diet, free diet and drinking water. […]
According to the above treatment, it was carried out for 8 weeks, and then within 1 week, the mice were starved for one day and then given feed, and the feed intake of the animals in the following day was recorded. That is, food weights were recorded every other day (4 separate measurements) and the average daily intake was determined for each 2-day period and calculated for each individual during the one-week measurement period. […]

[3] = SPF mice feeding experiment (high-fat diet); format: in vivo, C57/B16J mice; details: for weekly feed intake vs control HFD group: after 3-4 weeks; for body weight decrease compared with the HFD group: intragastric 0.75 mg-3 mg/Kg once/day, after 8 weeks; for subcutaneous and visceral fat weight (inguinal subcutaneous, epididymis, perirenal) vs HFD group: 8 weeks
Procedure: C57/B16J mice were used in the SPF mice experiment. At the beginning of the experiment, C57/B16J mice were 4 weeks old, and each weighed 15±1 g. They were raised in a room with suitable temperature and humidity control, and the light/dark cycle was 12 hours, free diet and drinking water, and fed with standard laboratory feed (also known as growth and reproduction feed, item number SPFSLFZ003, product of SPF (Beijing) Experimental Animal Technology Co., Ltd.). After one week of adaptation, they were randomly assigned to a cage, 4-6 mice per cage.
A total of 12 treatments were set up, each with 2 cages of C57/B16J mice, and each treatment was subjected to different feeding treatments, specifically as follows:
NC group (i.e. normal diet group): fed with standard laboratory feed (also known as growth and reproduction feed, SPFSLFZ003), free diet and drinking water, each intragastrically administrated with 0.2 ml solvent daily for 8 weeks.
HFD group (i.e. high-fat diet group): fed with high-fat diet, the high-fat diet used was rodent feed (containing 60% fat, D12492, formula reference Le Roy, T., et al. Dysosmobacter welbionis is a newly isolated human commensal bacterium preventing diet-induced obesity and metabolic disorders in mice. Gut (2021).), free diet and drinking water, each intragastrically administrated with 0.2 ml solvent daily for 8 weeks.
as §1, §2
D3 group (i.e. high-fat diet+D3 intragastric administration group): fed with high-fat diet, free diet and drinking water. Intragastrically administrated with synthetic D3, 0.75 mg-3 mg/Kg body weight, 0.2 ml, once/day for 8 weeks.
D4 group (i.e. high-fat diet+D4 intragastric administration group): fed with high-fat diet, free diet and drinking water. Intragastrically administrated with synthetic D4, 0.75 mg-3 mg/Kg body weight, 0.2 ml, once/day for 8 weeks.
D5 group (i.e. high-fat diet+D5 intragastric administration group): fed with high-fat diet, free diet and drinking water. Intragastrically administrated with synthetic D5, 0.75 mg-3 mg/Kg body weight, 0.2 ml, once/day for 8 weeks.
D6 group (i.e. high-fat diet+D6 intragastric administration group): fed with high-fat diet, free diet and drinking water. Intragastrically administrated with synthetic D6, 0.75 mg-3 mg/Kg body weight, 0.2 ml, once/day for 8 weeks.
D7 group (i.e. high-fat diet+D7 intragastric administration group): fed with high-fat diet, free diet and drinking water. Intragastrically administrated with synthetic D7, 0.75 mg-3 mg/Kg body weight, 0.2 ml, once/day for 8 weeks.
D8 group (i.e. high-fat diet+D8 intragastric administration group): fed with high-fat diet, free diet and drinking water. Intragastrically administrated with synthetic D8, 0.75 mg-3 mg/Kg body weight, 0.2 ml, once/day for 8 weeks.
D9 group (i.e. high-fat diet+D9 intragastric administration group): fed with high-fat diet, free diet and drinking water. Intragastrically administrated with synthetic D9, 0.75 mg-3 mg/Kg body weight, 0.2 ml, once/day for 8 weeks.
D10 group (i.e. high-fat diet+D10 intragastric administration group): fed with high-fat diet, free diet and drinking water. Intragastrically administrated with synthetic D10, 0.75 mg-3 mg/Kg body weight, 0.2 ml, once/day for 8 weeks.
The feed intake was tracked every week. After the experiment, the mice were weighed and photographs were taken to compare the body size of the mice. After that, the mice were killed by cervical dislocation. […]

A. muciniphila = experiment: qPCR of relative abundance of A. muciniphila in intestinal flora of SPF mice; format: in vivo; details: p<0.05
Procedure: In order to verify the changes in the relative abundance of A.muciniphila in the intestinal flora of mice fed with other HD, qPCR experiments were performed on the changes of intestinal flora in mice. Faecal bacterial DNA was extracted from the faeces of mice in the NC, HFD, D1, D2, D3, D5, D7, D8, D9 and D10 groups collected in the pre-SPF mice experiments and then the relative abundance of A. muciniphila was determined using qPCR.

[4] = Phase 3, overweight or obese adults, subcutaneous 2.4 mg/week

Molecule | weekly feed intake vs control HFD group [3] | body weight decrease compared with the HFD group [3] [%] | subcutaneous and visceral fat weight (inguinal subcutaneous, epididymis, perirenal) vs HFD group [3] | relative abundance of A. muciniphila in the intestinal flora by qPCR (A. muciniphila) | further results
C[C@H]1CNCCc2ccc(Cl)cc21 [Lorcaserin] |  |  |  |  | additional weight lost per year ([1]; obese subjects during the medication period): 3.2 to 3.6 kg
CCCCCCCCCCC[C@@H](C[C@@H]1OC(=O)[C@H]1CCCCCC)OC(=O)[C@H](CC(C)C)NC=O [orlistat, Orlistat] |  |  |  |  | body weight lost ([1]; obese patients, within 12 months): 2.9 to 3.4 kg
ATCYRRTGR [D4] | no significant effect | 3.55 |  |  | short-term feed intake vs HFD group [2]: no significant effect
ATRYCRTGR [D6] | no significant effect | 3.78 |  |  | short-term feed intake vs HFD group [2]: no significant effect
GTCYCRTGR [D7] | significant difference in feed intake | 8.08 | significantly lower than that of the HFD group | significantly increased | 
GTCYKRTGR [D2] | significant difference in feed intake | 9.45 | significantly lower than that of the HFD group | significantly increased | 
GTRYCRTGR [D10] | significant difference in feed intake | 11.06 | significantly lower than that of the HFD group | significantly increased | 
GTRYKRTGR [D8] | significant difference in feed intake | 10.07 | significantly lower than that of the HFD group | significantly increased | 
RTCYCRTGR [D9] | significant difference in feed intake | 11.09 | significantly lower than that of the HFD group | significantly increased | 
RTCYKRTGR [D5] | significant difference in feed intake | 11.8 | significantly lower than that of the HFD group | significantly increased | 
RTRYKRTGR [D1] | significant difference in feed intake | 11.62 | significantly lower than that of the HFD group | significantly increased | 
semaglutide |  |  |  |  | average weight lost [1, 4]: 15.3 kg; average weight lost, of initial body weight [1, 4]: 14.9%; mean body mass index (BMI) drop [1, 4]: 5.54
